From PubChem BioAssay (NCI)
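Dose response: 5 concentrations. Exposure: 48 h. Format: 96-well plates. Endpoint: linear interpolation; highest concentration if not reached. GI50 marks 50% less growth. TGI denotes the concentration required for complete inhibition of growth.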

What was measured:
Experiment in all cases: DTP human tumour cell line panel, 48 h
NCI-H522 lung = system: NCI-H522 lung
SNB-19 CNS = system: SNB-19 CNS
U251 CNS = system: U251 CNS
K-562 leukemia = system: K-562 leukemia
PC-3 prostate = system: PC-3 prostate
BT-549 breast = system: BT-549 breast
HCC-2998 colon = system: HCC-2998 colon
MOLT-4 leukemia = system: MOLT-4 leukemia
NCI/ADR-RES ovarian = system: NCI/ADR-RES ovarian
SF-539 CNS = system: SF-539 CNS
DU-145 prostate = system: DU-145 prostate
UO-31 renal = system: UO-31 renal
CAKI-1 renal = system: CAKI-1 renal
TK-10 renal = system: TK-10 renal
786-0 renal = system: 786-0 renal
RPMI-8226 leukemia = system: RPMI-8226 leukemia
SF-268 CNS = system: SF-268 CNS
SF-295 CNS = system: SF-295 CNS
MALME-3M melanoma = system: MALME-3M melanoma
OVCAR-8 ovarian = system: OVCAR-8 ovarian
UACC-257 melanoma = system: UACC-257 melanoma
MDA-MB-435 = system: MDA-MB-435
SK-MEL-5 melanoma = system: SK-MEL-5 melanoma
M14 melanoma = system: M14 melanoma
A549 NSCLC = system: A549 NSCLC
HOP-62 NSCLC = system: HOP-62 NSCLC
OVCAR-4 ovarian = system: OVCAR-4 ovarian
SR leukemia = system: SR leukemia
CCRF-CEM leukemia = system: CCRF-CEM leukemia
NCI-H460 lung = system: NCI-H460 lung
MDA-MB-231 breast = system: MDA-MB-231 breast
UACC-62 melanoma = system: UACC-62 melanoma
HCT-15 colon = system: HCT-15 colon
HCT-116 colon = system: HCT-116 colon
HOP-92 NSCLC = system: HOP-92 NSCLC
IGROV1 ovarian = system: IGROV1 ovarian
KM12 colon = system: KM12 colon
NCI-H226 lung = system: NCI-H226 lung
SW-620 colon = system: SW-620 colon
SN12C renal = system: SN12C renal
SK-OV-3 ovarian = system: SK-OV-3 ovarian
LOX IMVI melanoma = system: LOX IMVI melanoma
OVCAR-5 ovarian = system: OVCAR-5 ovarian
ACHN renal = system: ACHN renal
A498 renal = system: A498 renal
EKVX NSCLC = system: EKVX NSCLC
MCF7 breast = system: MCF7 breast
NCI-H23 lung = system: NCI-H23 lung
COLO 205 colon = system: COLO 205 colon
SK-MEL-28 melanoma = system: SK-MEL-28 melanoma
HT29 colon = system: HT29 colon
SK-MEL-2 melanoma = system: SK-MEL-2 melanoma
SNB-75 CNS = system: SNB-75 CNS
OVCAR-3 ovarian = system: OVCAR-3 ovarian

## CCOC(=O)Oc1c(OC)cc(C(=O)c2ccc(OC)c(O)c2OC)cc1OC
NCI-H522 lung
  GI50: 0.311 µM
  TGI: 1.99 µM
SNB-19 CNS
  GI50: 0.821 µM
  TGI: > 100 µM
U251 CNS
  GI50: 0.947 µM
  TGI: > 100 µM
K-562 leukemia
  GI50: 0.416 µM
  TGI: > 100 µM
PC-3 prostate
  GI50: 0.562 µM
  TGI: > 100 µM
BT-549 breast
  GI50: 0.465 µM
  TGI: 6.97 µM
HCC-2998 colon
  GI50: 2.31 µM
  TGI: > 100 µM
MOLT-4 leukemia
  GI50: 0.492 µM
  TGI: > 100 µM
NCI/ADR-RES ovarian
  GI50: 0.378 µM
  TGI: 6.97 µM
SF-539 CNS
  GI50: 0.637 µM
  TGI: 5.83 µM
DU-145 prostate
  GI50: 0.885 µM
  TGI: > 100 µM
UO-31 renal
  GI50: 3.54 µM
  TGI: > 100 µM
CAKI-1 renal
  GI50: 1.81 µM
  TGI: > 100 µM
TK-10 renal
  GI50: > 100 µM
  TGI: > 100 µM
786-0 renal
  GI50: 0.475 µM
  TGI: > 100 µM
RPMI-8226 leukemia
  GI50: 0.456 µM
  TGI: > 100 µM
SF-268 CNS
  GI50: 10.7 µM
  TGI: > 100 µM
SF-295 CNS
  GI50: 0.524 µM
  TGI: 49.7 µM
MALME-3M melanoma
  GI50: 0.686 µM
  TGI: > 100 µM
OVCAR-8 ovarian
  GI50: 3.36 µM
  TGI: > 100 µM
UACC-257 melanoma
  GI50: > 100 µM
  TGI: > 100 µM
MDA-MB-435
  GI50: 0.288 µM
  TGI: 1.01 µM
SK-MEL-5 melanoma
  GI50: 0.475 µM
  TGI: 55.6 µM
M14 melanoma
  GI50: 0.319 µM
  TGI: > 100 µM
A549 NSCLC
  GI50: 3.96 µM
  TGI: > 100 µM
HOP-62 NSCLC
  GI50: 0.962 µM
  TGI: > 100 µM
OVCAR-4 ovarian
  GI50: 6.04 µM
  TGI: > 100 µM
SR leukemia
  GI50: 0.381 µM
  TGI: > 100 µM
CCRF-CEM leukemia
  GI50: 0.41 µM
  TGI: > 100 µM
NCI-H460 lung
  GI50: 1.78 µM
  TGI: > 100 µM
MDA-MB-231 breast
  GI50: 3.31 µM
  TGI: > 100 µM
UACC-62 melanoma
  GI50: 3.82 µM
  TGI: > 100 µM
HCT-15 colon
  GI50: 0.42 µM
  TGI: > 100 µM
HCT-116 colon
  GI50: 0.44 µM
  TGI: 12.8 µM
HOP-92 NSCLC
  GI50: 0.727 µM
  TGI: > 100 µM
IGROV1 ovarian
  GI50: 3.86 µM
  TGI: > 100 µM
KM12 colon
  GI50: 0.52 µM
  TGI: > 100 µM
NCI-H226 lung
  GI50: 4.56 µM
  TGI: 40.7 µM
SW-620 colon
  GI50: 0.489 µM
  TGI: > 100 µM
SN12C renal
  GI50: 2.79 µM
  TGI: > 100 µM
SK-OV-3 ovarian
  GI50: 2.88 µM
  TGI: > 100 µM
LOX IMVI melanoma
  GI50: 0.557 µM
  TGI: > 100 µM
OVCAR-5 ovarian
  GI50: 5.96 µM
  TGI: > 100 µM
ACHN renal
  GI50: 1.95 µM
  TGI: > 100 µM
A498 renal
  GI50: 3.19 µM
  TGI: 17 µM
EKVX NSCLC
  GI50: 2.54 µM
  TGI: > 100 µM
MCF7 breast
  GI50: 0.516 µM
  TGI: > 100 µM
NCI-H23 lung
  GI50: 2.29 µM
  TGI: > 100 µM
COLO 205 colon
  GI50: 12.5 µM
  TGI: 63.5 µM
SK-MEL-28 melanoma
  GI50: 2.78 µM
  TGI: > 100 µM
HT29 colon
  GI50: 3.13 µM
  TGI: 22.8 µM
SK-MEL-2 melanoma
  GI50: 1.79 µM
  TGI: > 100 µM
SNB-75 CNS
  GI50: 0.534 µM
  TGI: > 100 µM
OVCAR-3 ovarian
  GI50: 0.414 µM
  TGI: > 100 µM
